Results taken from article PMC6494879, “Drug resistance emergence in macaques administered cabotegravir long-acting for pre-exposure prophylaxis during acute SHIV infection” (Nature Communications, 2019).

Columns and labels:
[1] = tested on: SIV integrase E92Q/G140R (SIV IN RTV pseudovirus); type: cell-based; details: E92Q/G140R SIV integrase mutant
[2] = tested on: RT-SHIV; test: Plasma SHIV RNA (RT-PCR) in RT-SHIV-infected macaques treated with CAB LA; details: for Median VL treated: median of treated macaques
Description: (§1) CAB LA (200 mg/mL injectable stock aqueous suspension) was given at a dose of 50 mg kg^−1 under anesthesia by intramuscular injection into the quadriceps. Volumes greater than 1.0 mL were divided into two injection sites.

[3] = in vivo; details: Indian, rhesus monkey
Description: as §1

C[C@H]1CO[C@@H]2Cn3cc(C(=O)NCc4ccc(F)cc4F)c(=O)c(O)c3C(=O)N12 [CAB, cabotegravir]
fold-change relative to wild type integrase [1]: > 840 fold
SHIV RNA copies/ml ([2]; macaque 01D520, day 14): 213778 copies/ml
SHIV RNA copies/ml ([2]; macaque 01D520, day 16): 25703 copies/ml
SHIV RNA copies/ml ([2]; macaque 01D520, day 18): 6247 copies/ml
SHIV RNA copies/ml ([2]; macaque 01D520, day 22): 1187 copies/ml
SHIV RNA copies/ml ([2]; macaque 01D520, day 25): 478 copies/ml
SHIV RNA copies/ml ([2]; macaque 01D520, day 29): 2040 copies/ml
SHIV RNA copies/ml ([2]; macaque 01D520, day 32): 390 copies/ml
SHIV RNA copies/ml ([2]; macaque 01D520, day 36): 49 copies/ml
SHIV RNA copies/ml ([2]; macaque 01D520, day 39): 316 copies/ml
SHIV RNA copies/ml ([2]; macaque 01D520, day 43): 144 copies/ml
SHIV RNA copies/ml ([2]; macaque 01D520, day 46): 49 copies/ml
SHIV RNA copies/ml ([2]; macaque 01D520, day 50): 49 copies/ml
SHIV RNA copies/ml ([2]; macaque 01D520, day 53): 71 copies/ml
SHIV RNA copies/ml ([2]; macaque 01D520, day 57): 49 copies/ml
SHIV RNA copies/ml ([2]; macaque 01D520, day 60): 49 copies/ml
SHIV RNA copies/ml ([2]; macaque 01D520, day 64): 49 copies/ml
SHIV RNA copies/ml ([2]; macaque 01D520, day 67): 250 copies/ml
SHIV RNA copies/ml ([2]; macaque 10D181, day 14): 179379 copies/ml
SHIV RNA copies/ml ([2]; macaque 10D181, day 16): 39172 copies/ml
SHIV RNA copies/ml ([2]; macaque 10D181, day 18): 9142 copies/ml
SHIV RNA copies/ml ([2]; macaque 10D181, day 22): 2006 copies/ml
SHIV RNA copies/ml ([2]; macaque 10D181, day 25): 507 copies/ml
SHIV RNA copies/ml ([2]; macaque 10D181, day 29): 2459 copies/ml
SHIV RNA copies/ml ([2]; macaque 10D181, day 32): 444 copies/ml
SHIV RNA copies/ml ([2]; macaque 10D181, day 36): 906 copies/ml
SHIV RNA copies/ml ([2]; macaque 10D181, day 39): 1839 copies/ml
SHIV RNA copies/ml ([2]; macaque 10D181, day 43): 2744 copies/ml
SHIV RNA copies/ml ([2]; macaque 10D181, day 46): 344 copies/ml
SHIV RNA copies/ml ([2]; macaque 10D181, day 50): 294 copies/ml
SHIV RNA copies/ml ([2]; macaque 10D181, day 53): 756 copies/ml
SHIV RNA copies/ml ([2]; macaque 10D181, day 57): 241 copies/ml
SHIV RNA copies/ml ([2]; macaque 10D181, day 60): 971 copies/ml
SHIV RNA copies/ml ([2]; macaque 10D181, day 64): 2139 copies/ml
SHIV RNA copies/ml ([2]; macaque 33996, day 14): 154663 copies/ml
SHIV RNA copies/ml ([2]; macaque 33996, day 16): 9000 copies/ml
SHIV RNA copies/ml ([2]; macaque 33996, day 18): 1964 copies/ml
SHIV RNA copies/ml ([2]; macaque 33996, day 22): 112 copies/ml
SHIV RNA copies/ml ([2]; macaque 33996, day 25): 141 copies/ml
SHIV RNA copies/ml ([2]; macaque 33996, day 29): 25 copies/ml
SHIV RNA copies/ml ([2]; macaque 33996, day 32): 55 copies/ml
SHIV RNA copies/ml ([2]; macaque 33996, day 36): 49 copies/ml
SHIV RNA copies/ml ([2]; macaque 33996, day 39): 49 copies/ml
SHIV RNA copies/ml ([2]; macaque 33996, day 43): 49 copies/ml
SHIV RNA copies/ml ([2]; macaque 33996, day 46): 49 copies/ml
SHIV RNA copies/ml ([2]; macaque 33996, day 50): 49 copies/ml
SHIV RNA copies/ml ([2]; macaque 33996, day 53): 49 copies/ml
SHIV RNA copies/ml ([2]; macaque 33996, day 57): 49 copies/ml
SHIV RNA copies/ml ([2]; macaque 33996, day 60): 14 copies/ml
SHIV RNA copies/ml ([2]; macaque 33996, day 64): 59 copies/ml
SHIV RNA copies/ml ([2]; macaque 35451, day 14): 32948 copies/ml
SHIV RNA copies/ml ([2]; macaque 35451, day 16): 24534 copies/ml
SHIV RNA copies/ml ([2]; macaque 35451, day 18): 5566 copies/ml
SHIV RNA copies/ml ([2]; macaque 35451, day 22): 189 copies/ml
SHIV RNA copies/ml ([2]; macaque 35451, day 25): 365 copies/ml
SHIV RNA copies/ml ([2]; macaque 35451, day 29): 487 copies/ml
SHIV RNA copies/ml ([2]; macaque 35451, day 32): 189 copies/ml
SHIV RNA copies/ml ([2]; macaque 35451, day 36): 262 copies/ml
SHIV RNA copies/ml ([2]; macaque 35451, day 39): 194 copies/ml
SHIV RNA copies/ml ([2]; macaque 35451, day 43): 240 copies/ml
SHIV RNA copies/ml ([2]; macaque 35451, day 46): 77 copies/ml
SHIV RNA copies/ml ([2]; macaque 35451, day 50): 318 copies/ml
SHIV RNA copies/ml ([2]; macaque 35451, day 53): 134 copies/ml
SHIV RNA copies/ml ([2]; macaque 35451, day 57): 132 copies/ml
SHIV RNA copies/ml ([2]; macaque 35451, day 60): 90 copies/ml
SHIV RNA copies/ml ([2]; macaque 35451, day 64): 800 copies/ml
SHIV RNA copies/ml ([2]; macaque 35451, day 67): 104 copies/ml
SHIV RNA copies/ml ([2]; macaque CH54, day 14): 680147 copies/ml
SHIV RNA copies/ml ([2]; macaque CH54, day 16): 142531 copies/ml
SHIV RNA copies/ml ([2]; macaque CH54, day 18): 87386 copies/ml
SHIV RNA copies/ml ([2]; macaque CH54, day 22): 4318 copies/ml
SHIV RNA copies/ml ([2]; macaque CH54, day 25): 279 copies/ml
SHIV RNA copies/ml ([2]; macaque CH54, day 29): 2506 copies/ml
SHIV RNA copies/ml ([2]; macaque CH54, day 32): 3049 copies/ml
SHIV RNA copies/ml ([2]; macaque CH54, day 36): 1291 copies/ml
SHIV RNA copies/ml ([2]; macaque CH54, day 39): 1031 copies/ml
SHIV RNA copies/ml ([2]; macaque CH54, day 43): 750 copies/ml
SHIV RNA copies/ml ([2]; macaque CH54, day 46): 485 copies/ml
SHIV RNA copies/ml ([2]; macaque CH54, day 50): 803 copies/ml
SHIV RNA copies/ml ([2]; macaque CH54, day 53): 49 copies/ml
SHIV RNA copies/ml ([2]; macaque CH54, day 57): 158 copies/ml
SHIV RNA copies/ml ([2]; macaque CH54, day 60): 2633 copies/ml
SHIV RNA copies/ml ([2]; macaque CH54, day 64): 1132 copies/ml
SHIV RNA copies/ml ([2]; macaque CH54, day 67): 4979 copies/ml
SHIV RNA copies/ml ([2]; macaque CJ92, day 14): 87372 copies/ml
SHIV RNA copies/ml ([2]; macaque CJ92, day 16): 9159 copies/ml
SHIV RNA copies/ml ([2]; macaque CJ92, day 18): 1727 copies/ml
SHIV RNA copies/ml ([2]; macaque CJ92, day 22): 101 copies/ml
SHIV RNA copies/ml ([2]; macaque CJ92, day 25): 49 copies/ml
SHIV RNA copies/ml ([2]; macaque CJ92, day 29): 423 copies/ml
SHIV RNA copies/ml ([2]; macaque CJ92, day 32): 300 copies/ml
SHIV RNA copies/ml ([2]; macaque CJ92, day 36): 57 copies/ml
SHIV RNA copies/ml ([2]; macaque CJ92, day 39): 270 copies/ml
SHIV RNA copies/ml ([2]; macaque CJ92, day 43): 49 copies/ml
SHIV RNA copies/ml ([2]; macaque CJ92, day 46): 108 copies/ml
SHIV RNA copies/ml ([2]; macaque CJ92, day 50): 163 copies/ml
SHIV RNA copies/ml ([2]; macaque CJ92, day 53): 49 copies/ml
SHIV RNA copies/ml ([2]; macaque CJ92, day 57): 49 copies/ml
SHIV RNA copies/ml ([2]; macaque CJ92, day 60): 49 copies/ml
SHIV RNA copies/ml ([2]; macaque CJ92, day 64): 49 copies/ml
SHIV RNA copies/ml ([2]; macaque CJ92, day 67): 50 copies/ml
Median VL treated ([2]; day 0): 49 copies/ml
Median VL treated ([2]; day 2): 21683 copies/ml
Median VL treated ([2]; day 4): 196903 copies/ml
Median VL treated ([2]; day 7): 674920 copies/ml
Median VL treated ([2]; day 9): 6944678 copies/ml
Median VL treated ([2]; day 11): 4288688 copies/ml
Median VL treated ([2]; day 14): 167021 copies/ml
Median VL treated ([2]; day 16): 25119 copies/ml
Median VL treated ([2]; day 18): 5906 copies/ml
Median VL treated ([2]; day 22): 688 copies/ml
Median VL treated ([2]; day 25): 322 copies/ml
Median VL treated ([2]; day 29): 1263 copies/ml
Median VL treated ([2]; day 32): 345 copies/ml
Median VL treated ([2]; day 36): 160 copies/ml
Median VL treated ([2]; day 39): 293 copies/ml
Median VL treated ([2]; day 43): 192 copies/ml
Median VL treated ([2]; day 46): 92 copies/ml
Median VL treated ([2]; day 50): 229 copies/ml
Median VL treated ([2]; day 53): 60 copies/ml
Median VL treated ([2]; day 57): 91 copies/ml
Median VL treated ([2]; day 60): 69 copies/ml
Median VL treated ([2]; day 64): 429 copies/ml
Median VL treated ([2]; day 67): 85 copies/ml
Median VL treated ([2]; day 71): 205 copies/ml
Median VL treated ([2]; day 74): 49 copies/ml
Median VL treated ([2]; day 78): 76 copies/ml
Median VL treated ([2]; day 81): 64 copies/ml
Median VL treated ([2]; day 85): 85 copies/ml
Median VL treated ([2]; day 88): 61 copies/ml
Median VL treated ([2]; day 92): 59 copies/ml
Median VL treated ([2]; day 95): 80 copies/ml
Median VL treated ([2]; day 102): 49 copies/ml
Median VL treated ([2]; day 106): 61 copies/ml
Median VL treated ([2]; day 115): 2657 copies/ml
Median VL treated ([2]; day 120): 15539 copies/ml
Median VL treated ([2]; day 134): 2817 copies/ml
Median VL treated ([2]; day 143): 2103 copies/ml
Median VL treated ([2]; day 148): 2164 copies/ml
Median VL treated ([2]; day 155): 1667 copies/ml
Median VL treated ([2]; day 162): 1714 copies/ml
Median VL treated ([2]; day 170): 1307 copies/ml
Median VL treated ([2]; day 176): 558 copies/ml
Median VL treated ([2]; day 183): 4928 copies/ml
Median VL treated ([2]; day 190): 6516 copies/ml
Median VL treated ([2]; day 197): 8692 copies/ml
Median VL treated ([2]; day 204): 9657 copies/ml
half-life [3]: 10.7 days
